For orientation: amount remaining means what is left of the initial amount, in per cent. A high value points to less turnover.

Ends that are not written are not given here.

Data set [1] has as its system human cathepsins B, K, L, and S. Put plainly: in vitro. Particulars: isolated enzyme cathepsin other, pH 5.5, cathepsin cleavage assay.
Another data set relates to ARPE-19 cells. The experiment in a line: Cell viability assay of HR97 peptide (PrestoBlue HS). In kind it is cell-based, human. Particulars: concentrations up to 5 mg/mL, 12 h incubation, n = 5. As to the method: The PrestoBlue^TM HS cell viability system was used to assess cell viability. ARPE-19 cells were seeded at 0.01 × 10^6 cells/well in 96 well plates and cultured with DMEM:F12 medium containing 10% FBS according to the vendor protocol. After 7 days, 90 µL of DMEM/F12 containing 0, 1, 5, 10, or 20 mg/mL of the HR97 was added. The cells (n = 5) were then incubated for 12 h, and viability was measured by adding 10 µL of PrestoBlue^TM HS cell viability reagents at 37 °C. After 0.5, 1, 2, 3, 4 and 5 h, absorbance (570 nm and 600 nm) was measured at 37 °C and normalized according to the protocol provided by the vendor.

Data set [2] is described as follows: Ocular safety evaluation / ocular grading after ICM injection. As to conditions: rabbit, in vivo. As to the method: For the IOP measurements in normotensive rabbits, Dutch Belted rabbits (2–3 kg) were used (n = 5). IOP was measured with a hand-held rebound tonometer icareTONOVET (Vantaa, Finland) in the awake and gently restrained rabbit. Each rabbit was acclimatized to the IOP measurement procedure for at least 5 days to obtain a stable background IOP reading. A mean of three IOP measurements for an individual eye were taken every other day for 6 days (3 times in total) and used as a baseline value. For the ICM injection procedure, rabbits were anesthetized with ketamine/xylazine and received topical anesthesia with 0.5% proparacaine hydrochloride. A corneal pre-puncture was performed with a 30 G needle, followed with a single bolus ICM injection of 200 µg (mass of brimonidine) of HR97-brimonidine or brimonidine tartrate solution in 100 µL saline using a 28 G needle. After the procedure, topical bacitracin-neomycin-polymyxin ophthalmic ointment was applied to both eyes to prevent infection and dry eyes. On day 7, an ophthalmologist masked to treatment evaluate the HR97-brimonidine injected eyes with the following items: functionality of lids, lashes, conjunctiva, cornea transparency, pigmentation of corneal endothelium, depth of anterior chambers, inflammation, fibrin strands, and symmetry of the lens[113]. […] In a separate study, a corneal pre-puncture was performed with a 30 G needle, followed with a single bolus ICM injection of 200 µg (mass of brimonidine) containing a physical mixture of unconjugated HR97 and brimonidine tartrate (HR97 + brimonidine), the equivalent amount of HR97 peptide alone, or saline alone in 100 µL saline. On day 7, day 14, day 21, and day 28, an ophthalmologist masked to treatment performed the same safety evaluations described above. IOP was measured on days 2, 3, 4, 5, 6, 7, 8, 10, 12, 14, 16, 18, and 20 after the ICM injection, and change in IOP from the baseline (ΔIOP) was reported. The mean of three IOP measurements was taken for each eye by one observer, and then confirmed by a masked observer. Alternatively, a single topical eye drop (Alphagan® P 0.1%, 50 µL) was given (n = 5). The IOP were measured immediately before the topical dosing (0 h), and at 2, 4, 6 and 8 h after the eyedrop administration. For the pharmacokinetics studies, rabbits (n = 4 per group) received a single ICM injection with 200 µg (mass of brimonidine) HR97-brimonidine as described above. Rabbits were sacrificed 1, 7, 14, 28 days after the injection, and iris, aqueous, and retina were collected for measuring the brimonidine concentration.

Turning to FSGKRRKRKPR [HR97], the fraction remaining at 48 h, 100 µM in data set [1] was found to be 87.7%. The “cytotoxicity in ARPE-19 cells” value in the data set with ARPE-19 cells is reported as “no sign of cytotoxicity”. In data set [2], the “Ocular grading, all 17 items (pupillary light reflex to Meibomian gland function)” value is “All values are zero”; the “Ocular grading, all other scores of the 17 items” value stood at 0; the “Ocular grading: Fluorescein staining (area)” value is listed as 1; the “Ocular grading: Fluorescein staining (severity)” value is listed as 1. In addition, the “ocular toxicity, ophthalmologist evaluation” value in data set [2] is on record as “no ocular toxicity was observed”.

Source of the values: article PMC10154330, “Machine learning-driven multifunctional peptide engineering for sustained ocular drug delivery” (Nature Communications, 2023).
